The subject of the assay is postjunctional alpha1 receptor (isolated rabbit ear artery segment). Put plainly: postjunctional alpha1 agonist activity (EC50), isolated segment of rabbit ear artery. Particulars: isolated rabbit ear artery segment superfused with oxygenated Krebs solution; maximum response of the artery determined with norepinephrine; read-out: EC50 (dose required to produce 50% of the maximum response). Type of assay: cell-based. As for the experimental part: A quantitation of postjunctional alpha1 agonist activity (EC50) is determined for compounds showing activity in the above test. This is accomplished by employing an isolated segment of rabbit ear artery. The segment is mounted in a chamber superfused with oxygenated Krebs solution. The segment is suspended between two tungsten wires, one attached to the chamber, the other to a force-displacement transducer so that smooth muscle tension can be measured directly. Before administration of the test drug, norepinephrine is administered in increasing concentration (10^-8 M to 3×10^-6 M) to determine maximum response of the artery. The dose required to produce 50% of the maximum response is the EC50.

A word on the EC50: it is the concentration at which the effect is half-maximal.

In the case of `COc1ccc(OC)c2c1CCC(N)C2` (stereo not shown) [SK&F 87,696], the EC50 stood at 110 nM.

Turning to `COc1ccc(SC)c2c1CC(N(C)C)CC2` (stereo not shown) [SK&F 89,900, 1,2,3,4-tetrahydro-8-methoxy-N,N-dimethyl-5-(methylthio)-2-naphthalenamine], the EC50 is 13 nM.

As to `COc1ccc(OC)c2c1CCC(N(C)C)C2` (stereo not shown) [SK&F 88,444], the EC50 was 100 nM. Take `COc1ccc(SC)c2c1CC(N)CC2` (stereo not shown) [SK&F 89,748, 1,2,3,4-tetrahydro-8-methoxy-5-(methylthio)-2-naphthalenamine]: the EC50 came to 9.3 nM.

Source of the values: US4320148A, “2-Aminotetralin compounds, pharmaceutical compositions and method of producing central alpha1 agonist activity” (SmithKline Corporation, priority 1980, dated 1982).
